Our source for the IC50 values is patent US20150352108A1, “AMINO-PYRIMIDINE COMPOUNDS AS INHIBITORS OF TBK1 AND/OR IKK EPSILON” (Alzheimer's Institute of America, priority 2009, published 2015).

One experiment addresses T1, IKKε (Homo sapiens, UniProt Q14164).
T1 construct: His-tag; made in house; host or cells: Sf9 insect cells
T1 sequence (Q14164 1-716): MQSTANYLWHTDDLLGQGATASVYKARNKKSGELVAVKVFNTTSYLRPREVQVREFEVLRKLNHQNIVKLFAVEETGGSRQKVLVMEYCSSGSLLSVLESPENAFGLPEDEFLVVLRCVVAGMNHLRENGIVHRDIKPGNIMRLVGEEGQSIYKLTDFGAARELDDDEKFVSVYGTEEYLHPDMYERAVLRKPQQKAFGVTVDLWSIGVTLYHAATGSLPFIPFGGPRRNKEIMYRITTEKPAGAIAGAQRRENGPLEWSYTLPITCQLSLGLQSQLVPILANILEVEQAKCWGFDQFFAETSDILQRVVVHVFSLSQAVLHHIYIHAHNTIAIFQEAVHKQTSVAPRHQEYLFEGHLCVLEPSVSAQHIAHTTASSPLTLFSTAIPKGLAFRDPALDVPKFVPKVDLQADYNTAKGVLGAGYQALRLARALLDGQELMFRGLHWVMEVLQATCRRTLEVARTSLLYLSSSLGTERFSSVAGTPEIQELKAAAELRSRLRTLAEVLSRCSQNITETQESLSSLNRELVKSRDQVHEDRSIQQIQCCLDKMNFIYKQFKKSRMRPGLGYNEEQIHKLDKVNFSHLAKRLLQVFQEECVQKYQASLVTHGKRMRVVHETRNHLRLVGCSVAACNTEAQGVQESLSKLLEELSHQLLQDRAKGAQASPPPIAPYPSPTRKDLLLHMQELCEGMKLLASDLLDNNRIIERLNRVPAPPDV
The experiment is described as follows: In-vitro IKKε kinase assay ([γ33]ATP filter-plate). The format is biochemical. The following applies: text bins; read-out: IC50 for inhibition of the kinase activity of IKKε. The gist of the method: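 His-tagged Sf9-expressed kinases at 0.1 or 0.02 μg/ml (TBK1) and 0.1 or 0.015 μg/ml (IKKε) for normal and sensitized formats, with myelin basic protein or casein substrate. ATP was at 2×Km (60 μM TBK1, 32 μM IKKε) plus 0.3 μCi [γ33]ATP. Reactions ran 30-45 min, were captured on P-81 filters, and counts were normalized to DMSO.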

In experiment [1] the test system is IKKε-mediated phosphorylation of IRF3. The experiment is described as follows: In-situ phosphorylation of IRF3 (pIRF3 Ser396 ELISA) in HEK293T cells cotransfected with IRF3 and IKKε. The format is cell-based. As to conditions: Homo sapiens, HEK-293T; HEK293T cells, 20 hours, text bins; read-out: IC50 for inhibition of the in-situ IKKε-mediated phosphorylation of IRF3. Here is the method: HEK293T cells were cotransfected in a 10-cm dish with IRF3 and IKKε expression plasmids using Lipofectamine 2000 (Invitrogen, Carlsbad, Calif.). The following day, cells were replated at 20,000 per well in 96-well plates and treated with test compounds (compounds according to Formula I) for 20 hours. Cell lysates were prepared and analyzed using an ELISA for phospho-Ser396 (anti-IRF3 capture antibody, Santa Cruz Biotechnology, Inc., Santa Cruz, Calif.; anti-p-Ser396 IRF3 detection antibody, Cell Signaling, Danvers, Mass.). pIRF3 levels in compound treated cells were normalized to DMSO treated cells (no compound). Cell viability was assayed in a parallel set of plates to monitor cytotoxic effects of the test compounds (CellTiter-Glo, Promega, Inc., Madison, Wis.). TBK1 activity was tested by Western blotting using a phospho-specific IRF7 antibody. Similar to above, HEK293T cells were transfected with IRF7 and TBK1 expression plasmids. Cells were seeded in 12-well plates at 150,000 per well and treated overnight with test compounds. Protein lysates were prepared and processed for Western blotting followed by detection using a phosphor-Ser477/Ser479 IRF7 antibody (BD Biosciences, San Jose, Calif.)

SMILES strings stand for the structures. pIC50: −log10 of the molar value.

As for `CC(C)COc1ccc(-c2ccnc(Nc3ccc(N4CCN(CCO)CC4)cc3)n2)cc1C#N` [compound 442, 5-[2-({4-[4-(2-Hydroxyethyl)piperazin-1-yl]phenyl}amino)pyrimidin-4-yl]-2-(2-methylpropoxy) benzonitrile], the pIC50 was more than 8.30 at IKKε and more than 7.00 in experiment [1].

As to `N#Cc1cc(-c2ccnc(Nc3ccc(N4CCN(CCO)CC4)cc3)n2)ccc1OC1CCOCC1` [compound 512, 5-[2-({4-[4-(2-hydroxyethyl)piperazin-1-yl]phenyl}amino)pyrimidin-4-yl]-2-(tetrahydro-2H-pyran-4-yloxy)benzonitrile], the pIC50 on IKKε is more than 8.30; in experiment [1], more than 7.00.

`CCN(CC)CCOc1cc(Nc2nccc(-c3ccc(OCC4CC4)c(C#N)c3)n2)ccc1F` [compound 535, 2-(Cyclopropylmethoxy)-5-[2-({3-[2-(diethylamino)ethoxy]-4-fluorophenyl}amino)pyrimidin-4-yl]benzonitrile]: the pIC50 on IKKε is more than 8.30; in experiment [1], 6.30 to 6.60.

Consider `COCCC(=O)Nc1cccc(Nc2nccc(-c3ccc(OC4CCOCC4)c(C#N)c3)n2)c1` [compound 538, N-[3-({4-[3-Cyano-4-(tetrahydro-2H-pyran-4-yloxy)phenyl]pyrimidin-2-yl}amino)phenyl]-3-methoxypropanamide], for which the pIC50 at IKKε was more than 8.30; in experiment [1] it was more than 7.00.

Turning to `CN(C)CCNc1cccc(Nc2nccc(-c3ccc(OC4CCOCC4)c(C#N)c3)n2)c1` [compound 540, 5-{2-[(3-{[2-(Dimethylamino)ethyl]amino}phenyl)amino]pyrimidin-4-yl}-2-(tetrahydro-2H-pyran-4-yloxy)benzonitrile], the pIC50 is more than 8.30 at IKKε and more than 7.00 in experiment [1].

As to `N#Cc1cc(-c2ccnc(Nc3ccc(F)c(OC4CCNC4)c3)n2)ccc1OC1CCOCC1` (stereo not drawn) [compound 541, 5-(2-{[4-Fluoro-3-(pyrrolidin-3-yloxy)phenyl]amino}pyrimidin-4-yl)-2-(tetrahydro-2H-pyran-4-yloxy)benzonitrile], the pIC50 at IKKε is more than 8.30; in experiment [1], 6.60 to 7.00.

In the case of `N#Cc1cc(-c2ccnc(Nc3cccc(CN4CCCC4)c3)n2)ccc1OC1CCOCC1` [compound 542, 5-(2-{[3-(Pyrrolidin-1-ylmethyl)phenyl]amino}pyrimidin-4-yl)-2-(tetrahydro-2H-pyran-4-yloxy)benzonitrile], the figures for the pIC50 (at IKKε; in experiment [1]) were more than 8.30 and more than 7.00, respectively.

With `CCc1cccc(Nc2nccc(-c3ccc(O[C@@H]4CCN(C(=O)CO)C4)c(C#N)c3)n2)c1` [compound 544, 5-{2-[(3-Ethylphenyl)amino]pyrimidin-4-yl}-2-{[(3R)-1-(hydroxyacetyl)pyrrolidin-3-yl]oxy}benzonitrile], the values for the pIC50 (at IKKε; in experiment [1]) were more than 8.30 and 6.30 to 6.60, respectively.

Turning to `N#Cc1cc(-c2ccnc(Nc3ccc(F)c(OCC4COCCN4)c3)n2)ccc1OC1CCOCC1` (stereo not drawn) [compound 545], the pIC50 is more than 8.30 on IKKε and 6.30 to 6.60 in experiment [1].

Take `Cn1ccc(C(=O)Nc2cccc(Nc3nccc(-c4ccc(OC5CCOCC5)c(C#N)c4)n3)c2)n1` [compound 547, N-[3-({4-[3-Cyano-4-(tetrahydro-2H-pyran-4-yloxy)phenyl]pyrimidin-2-yl}amino)phenyl]-1-methyl-1H-pyrazole-3-carboxamide]: the pIC50 at IKKε is more than 8.30; in experiment [1], 6.60 to 7.00.

With `CN(C)Cc1cccc(Nc2nccc(-c3ccc(OC4CCOCC4)c(C#N)c3)n2)c1` [compound 548, 5-[2-({3-[(Dimethylamino)methyl]phenyl}amino)pyrimidin-4-yl]-2-(tetrahydro-2H-pyran-4-yloxy)benzonitrile], the pIC50 at IKKε was more than 8.30; in experiment [1] it was more than 7.00.

In the case of `COc1cc(Nc2ncc(F)c(-c3ccc(O[C@@H]4CCN(C(=O)CO)C4)c(C#N)c3)n2)ccc1N1CCOCC1` [compound 552, 5-(5-Fluoro-2-{[3-methoxy-4-(morpholin-4-yl)phenyl]amino}pyrimidin-4-yl)-2-{[(3R)-1-(hydroxyacetyl)pyrrolidin-3-yl]oxy}benzonitrile], the pIC50 at IKKε is more than 8.30; in experiment [1], more than 7.00.
